The source of these data is ChEMBL document CHEMBL5365531, “Structure-Activity Relationship Studies of SARS-CoV-2 Main Protease Inhibitors Containing 4-Fluorobenzothiazole-2-carbonyl Moieties” (J Med Chem, 2023).

Some results are limits rather than exact numbers.

The test system of data set [1] is SARS-CoV-2. As to the kind of experiment: Antiviral activity against SARS-CoV-2 JPN/TY/WK-521 infected in Vero E6 cells preincubated with cells for 1 day followed by viral infection and measured after 3 days by qRT-PCR analysis. Format: functional, organism-based. The following applies: Severe acute respiratory syndrome coronavirus 2, JPN/TY/WK-521, Vero C1008. (In general: Real-time PCR tracks product formation cycle by cycle.)

A short description of data set [2]: Cytotoxicity against African green monkey Vero E6 cells incubated for 3 days by WST-8 assay. Format: toxicity, cell-based, Vero C1008. The following applies: chlorocebus sabaeus, time 3 day. In general terms: Formazan colour is commonly taken as a measure of viable cells.
Data set [3] concerns SARS-CoV-2. As to the kind of experiment: Antiviral activity against SARS-CoV-2 JPN/TY/WK-521 infected in Vero E6 cells assessed as fold change preincubated with cells for 1 day followed by viral infection and measured after 3 days by qRT-PCR analysis relative to TKB245. Format: functional, Severe acute respiratory syndrome coronavirus 2. The following applies: time 4 day.
Another data set has as its system PBMC. As to the kind of experiment: Cytotoxicity against human PBMC cells assessed as reduction in cell viability at 3 uM incubated for 12 days by CCK-8 assay. Format: toxicity, cell-based. The note with it: 288 h, time 12 day.
Another data set relates to MOLT-4. Kind of data set: Cytotoxicity against human MOLT-4 cells assessed as reduction in cell viability at 3 uM incubated for 12 days by CCK-8 assay. The class given is toxicity, cell-based. The note with it: molt-4, 288 h, time 12 day.
The test system of the next data set is MT2. As to the kind of experiment: Cytotoxicity against human MT2 cells assessed as reduction in cell viability at 3 uM incubated for 12 days by CCK-8 assay. Format: toxicity, cell-based. The note with it: mt2, 288 h, time 12 day.
The test system of data set [4] is SARS-CoV-2. As to the kind of experiment: Antiviral activity against SARS-CoV-2 JPN/TY/WK-521 infected in Vero E6 cells assessed as fold change preincubated with cells for 1 day followed by viral infection and measured after 3 days by qRT-PCR analysis relative to 7-fluoro-N-((S)-1-(((S)-1-(4-fluorobenzo[d]thiazol-2-yl)-1-oxo-3-((S)-2-oxopyrrolidin-3-yl)propan-2-yl)amino)-3,3-dimethyl-1-oxobutan-2-yl)-4-methoxy-1H-indole-2-carboxamide. The class given is functional, Severe acute respiratory syndrome coronavirus 2. The note with it: time 4 day.

The test system of data set [5] is SARS-CoV-2. As to the kind of experiment: Antiviral activity against SARS-CoV-2 infected in Vero E6 cells preincubated with cells for 1 day followed by viral infection and measured after 3 days by qRT-PCR analysis. The class given is functional, organism-based. The note with it: Severe acute respiratory syndrome coronavirus 2, Vero C1008.
Data set [6] deals with SARS-CoV-2. Kind of data set: Antiviral activity against SARS-CoV-2 infected in Vero E6 cells assessed as fold change preincubated with cells for 1 day followed by viral infection and measured after 3 days by qRT-PCR analysis relative to YH-53. Format: functional, Severe acute respiratory syndrome coronavirus 2. The note with it: time 4 day.

As a reminder, the EC50 is the concentration that produces a half-maximal response. As usually defined, the CC50 is the concentration that lowers cell viability or growth by half. Turning to `CC(C)(F)[C@H](NC(=O)C(F)(F)F)C(=O)N1C[C@H]2[C@@H]([C@H]1C(=O)N[C@@H](C[C@@H]1CCNC1=O)C(=O)c1nc3c(F)cccc3s1)C2(C)C`, the EC50 with SARS-CoV-2 [1] was determined as 250 nM. In data set [2], this molecule yielded a CC50 at 72 h of over 100000 nM. Moreover, in the data set with SARS-CoV-2 [3], the “fold change (FC)” value was 21.

In the case of `CC(C)C(=O)OC[C@H]1O[C@@H](n2ccc(NO)nc2=O)[C@H](O)[C@@H]1O` [MOLNUPIRAVIR], the Activity entry with PBMC was “Non-Toxic”; in the data set on MOLT-4, “Non-Toxic”; in the data set on MT2, “Toxic”.

`CC(C)(C)[C@H](NC(=O)C(F)(F)F)C(=O)N1C[C@H]2[C@@H]([C@H]1C(=O)N[C@@H](C[C@@H]1CCNC1=O)C(=O)c1nc3c(Br)cccc3s1)C2(C)C` registered an EC50 with SARS-CoV-2 [1] of 63 nM. The molecule further displayed a CC50 at 72 h in [2] of over 100000 nM. For the same molecule, the “fold change (FC)” value with SARS-CoV-2 [3] was determined as 2.9.

As to `CC1(C)[C@@H]2[C@@H](C(=O)N[C@@H](C[C@@H]3CCNC3=O)C(=O)c3nc4c(F)cccc4s3)N(C(=O)[C@H](CCC(F)(F)F)NC(=O)C(F)(F)F)C[C@@H]21`, a half-maximal effect in the data set with SARS-CoV-2 [1] (EC50) was put at 590 nM. Moreover, the CC50 at 72 h in data set [2] is over 100000 nM. In addition, the “fold change (FC)” value in the data set on SARS-CoV-2 [3] came out at 14.

In turn, `CC1(C)[C@@H]2[C@@H](C(=O)N[C@@H](C[C@@H]3CCNC3=O)C(=O)c3nc4c(F)cccc4s3)N(C(=O)c3cc4c(F)ccc(F)c4[nH]3)C[C@@H]21` came in with an EC50 in the data set on SARS-CoV-2 [1] of 750 nM. This molecule showed a CC50 at 72 h in data set [2] of over 100000 nM. For the same molecule, the “fold change (FC)” value in the data set on SARS-CoV-2 [4] stood at 3.1.

In the case of `CC1(C)[C@@H]2[C@@H](C(=O)N[C@@H](C[C@@H]3CCNC3=O)C(=O)c3nc4c(F)cccc4s3)N(C(=O)[C@H](CC(F)(F)F)NC(=O)C(F)(F)F)C[C@@H]21`, in the data set with SARS-CoV-2 [1], the EC50 worked out at 2800 nM. Also, the CC50 at 72 h in [2] is over 100000 nM. Also, the “fold change (FC)” value with SARS-CoV-2 [3] amounted to 34.

`COc1cccc2[nH]c(C(=O)N[C@H](C(=O)N[C@@H](C[C@@H]3CCNC3=O)C(=O)c3nc4ccccc4s3)C(C)(C)C)cc12` had an EC50 with SARS-CoV-2 [5] of 2200 nM. This molecule gave a CC50 at 72 h in data set [2] of over 100000 nM.

`CC(C)(C)[C@H](NC(=O)C(F)(F)F)C(=O)N1C[C@H]2[C@@H]([C@H]1C(=O)N[C@@H](C[C@@H]1CCNC1=O)C(=O)c1nc3c(Cl)cccc3s1)C2(C)C`: in the data set with SARS-CoV-2 [1], a half-maximal response (EC50) required 19 nM. In [2], this molecule registered a CC50 at 72 h of over 100000 nM. Besides, the “fold change (FC)” value in the data set with SARS-CoV-2 [3] amounted to 0.86.

For the molecule `CC(C)(C)[C@H](NC(=O)C(F)(F)F)C(=O)NC1(C(=O)N[C@@H](C[C@@H]2CCNC2=O)C(=O)c2nc3c(F)cccc3s2)CCC(F)(F)C1` (some centres not stated), in the data set on SARS-CoV-2 [1], the EC50 is 2400 nM. The molecule also returned a CC50 at 72 h in [2] of over 100000 nM. For the same molecule, the “fold change (FC)” value in the data set on SARS-CoV-2 [3] is 90.

As for `COc1ccc(F)c2[nH]c(C(=O)N[C@H](C(=S)N[C@@H](C[C@@H]3CCNC3=O)C(=O)c3nc4c(F)cccc4s3)C(C)(C)C)cc12`, the response in the data set on SARS-CoV-2 [5] was half-maximal at 340 nM (EC50). Moreover, the “fold change (FC)” value in the data set on SARS-CoV-2 [6] was 0.16. In addition, the CC50 at 72 h in data set [2] was over 100000 nM.

The molecule `COc1ccc(F)c2[nH]c(C(=O)N3C[C@H]4[C@@H]([C@H]3C(=O)N[C@@H](C[C@@H]3CCNC3=O)C(=O)c3nc5c(F)cccc5s3)C4(C)C)cc12` came in with an EC50 with SARS-CoV-2 [1] of 560 nM. Moreover, the CC50 at 72 h in data set [2] was over 100000 nM. In addition, the “fold change (FC)” value in the data set with SARS-CoV-2 [4] was determined as 2.7.

Molecule `CC(C)(C)[C@H](NC(=O)C(F)(F)F)C(=O)N1C[C@@H]2CCC[C@@H]2[C@H]1C(=O)N[C@@H](C[C@@H]1CCNC1=O)C(=O)c1nc2c(F)cccc2s1` returned an EC50 in the data set with SARS-CoV-2 [1] of 95 nM. The same molecule returned a CC50 at 72 h in data set [2] of over 100000 nM. For the same molecule, in the data set on SARS-CoV-2 [3], the “fold change (FC)” value stood at 1.6.

Molecule `CC(C)(C)[C@H](NC(=O)C(F)(F)F)C(=O)N1C[C@H]2[C@@H]([C@H]1C(=O)N[C@@H](C[C@@H]1CCNC1=O)C(=O)c1nc3ccccc3s1)C2(C)C` gave a 50% effective concentration (EC50) with SARS-CoV-2 [1] of 15 nM. This molecule also had a CC50 at 72 h in data set [2] of over 100000 nM. For the same molecule, the “fold change (FC)” value with SARS-CoV-2 [4] was determined as 0.071.

The molecule `COc1cccc2[nH]c(C(=O)N3C[C@H]4[C@@H]([C@H]3C(=O)N[C@@H](C[C@@H]3CCNC3=O)C(=O)c3nc5ccccc5s3)C4(C)C)cc12` registered an EC50 with SARS-CoV-2 [1] of 2500 nM. In addition, in data set [2], the CC50 at 72 h was over 100000 nM. Also, the “fold change (FC)” value in the data set with SARS-CoV-2 [4] is 11.

Molecule `COc1ccc(F)c2[nH]c(C(=O)N[C@H](C(=O)N[C@@H](C[C@@H]3CCNC3=O)C(=O)c3nc4c(F)cccc4s3)C(C)(C)C)cc12` registered an EC50 with SARS-CoV-2 [5] of 290 nM. Besides, the “fold change (FC)” value in the data set with SARS-CoV-2 [6] is 0.13. The molecule further had a CC50 at 72 h in data set [2] of over 100000 nM.

As for `CC(C)C[C@H](NC(=O)[C@@H](NC(=O)C(F)(F)F)C(C)(C)C)C(=O)N[C@@H](C[C@@H]1CCNC1=O)C(=O)c1nc2c(F)cccc2s1`, the EC50 with SARS-CoV-2 [1] was found to be 360 nM. The CC50 at 72 h in data set [2] is over 100000 nM. In the data set with SARS-CoV-2 [4], the “fold change (FC)” value is reported as 1.
